Measurements published in patent publication US12630785B2, “Liquid fabric care compositions comprising capsules” (The Procter & Gamble Company, priority 2020, dated 2026).

Legend:
[1] = Capsule perfume leakage in liquid fabric enhancer (LFE), headspace SPME GC/MS; assay type: physicochemical
Description: The testing of capsule leakage in liquid compositions (e.g., liquid fabric enhancer/“LFE” compositions and/or heavy-duty liquid/“HDL” detergents) is performed as follows. […] The 1 gram aliquot in the 7 ml vial is then mixed on a stirring plate for 24 h at 500 rpm, thereby ensuring that the capsules are broken by the grinding action of the stir bar against the bottom of the 7 ml vial. Optical microscopy can be used to verify that no more intact capsules remain. In case such capsules are found, the step is to repeated for an additional 24 h, or until all or almost all capsules are broken. Then, the formulation containing broken capsules is introduced into GC vials in a similar manner as for step (a). This yields total oil samples. It is to be noted that the capsule sample and the total oil sample are not analyzed on the same day, as there is a need to prepare the total oil sample after the capsule sample has been removed from storage. […] The perfume oil composition formulated herein is representative of the perfume oil composition that is present in the slurry. Then the free oil formulation is introduced into GC vials in a similar manner as for step (a). This yields reference samples, which must be used when analyzing both the capsule sample and the total oil sample. […] Two headspace vials are prepared for each sample. The sealed headspace vials are then allowed to equilibrate. Samples reach equilibrium after 3 hours at room temperature, but can be left to sit longer without detriment or change to the results, up until 24 hours after sealing the headspace vial. After equilibrating, the samples are analyzed by GC/MS. […] The perfume composition is analyzed by fast GC/MS in full scan mode. Ion extraction of the specific mass for each component is obtained. The leakage is calculated as follows, separately for the capsule sample and total oil sample, where “Area” denotes the area under the chromatogram peak corresponding to the PRM of interest: Once calculated for all PRMs for both the total oil sample and the capsule sample, the corrected PRM leakage can be calculated using the following formula: Once the corrected PRM leakage has been calculated for all PRMs, the Average leakage can be found by taking the arithmetic mean of each corrected PRM leakage. […] The resulting products are stored for one week at 35° C. At the end of the storage period, samples of each product composition are analyzed for perfume leakage out of the capsule using headspace analysis. The data is reported as a percentage, determined by comparing the amount of the individual perfume raw materials found in the headspace to the amount originally provided to the capsules.

[2] = Capsule perfume leakage in heavy-duty liquid (HDL) detergent, headspace SPME GC/MS; assay type: physicochemical
Description: The testing of capsule leakage in liquid compositions (e.g., liquid fabric enhancer/“LFE” compositions and/or heavy-duty liquid/“HDL” detergents) is performed as follows. […] The 1 gram aliquot in the 7 ml vial is then mixed on a stirring plate for 24 h at 500 rpm, thereby ensuring that the capsules are broken by the grinding action of the stir bar against the bottom of the 7 ml vial. Optical microscopy can be used to verify that no more intact capsules remain. In case such capsules are found, the step is to repeated for an additional 24 h, or until all or almost all capsules are broken. Then, the formulation containing broken capsules is introduced into GC vials in a similar manner as for step (a). This yields total oil samples. It is to be noted that the capsule sample and the total oil sample are not analyzed on the same day, as there is a need to prepare the total oil sample after the capsule sample has been removed from storage. […] The perfume oil composition formulated herein is representative of the perfume oil composition that is present in the slurry. Then the free oil formulation is introduced into GC vials in a similar manner as for step (a). This yields reference samples, which must be used when analyzing both the capsule sample and the total oil sample. […] Two headspace vials are prepared for each sample. The sealed headspace vials are then allowed to equilibrate. […] After equilibrating, the samples are analyzed by GC/MS. […] The perfume composition is analyzed by fast GC/MS in full scan mode. Ion extraction of the specific mass for each component is obtained. The leakage is calculated as follows, separately for the capsule sample and total oil sample, where “Area” denotes the area under the chromatogram peak corresponding to the PRM of interest: Once calculated for all PRMs for both the total oil sample and the capsule sample, the corrected PRM leakage can be calculated using the following formula: Once the corrected PRM leakage has been calculated for all PRMs, the Average leakage can be found by taking the arithmetic mean of each corrected PRM leakage. […] The resulting products are stored for one week at 35° C. At the end of the storage period, samples of each product composition are analyzed for perfume leakage out of the capsule using headspace analysis. The data is reported as a percentage, determined by comparing the amount of the individual perfume raw materials found in the headspace to the amount originally provided to the capsules.

[3] = PRM of Perfume 1 out of Comparative Example 4-1 capsules (polyacrylate shell), LFE Composition 1, 0.25 wt % perfume
[4] = PRM of Perfume 1 out of Comparative Example 6-1 capsules (no second shell component), LFE Composition 1
[5] = PRM of Perfume 1 out of Comparative Example 10-1 capsules (per EP2500087B1), LFE Composition 1
[6] = PRM of Perfume 1 out of Comparative Example 10-2 capsules (per WO2010013250A2, with IPM), LFE Composition 1
[7] = PRM of Perfume 1 out of Example 2, Sample A capsules, LFE Composition 1 (Ester Quat 1)
[8] = PRM of Perfume 1 out of Example 2, Sample A capsules, LFE Composition 2 (Ester Quat 2)
[9] = PRM of Perfume 1 out of Example 2, Sample A capsules, LFE Composition 3 (Ester Quat 3)
[10] = PRM of Perfume 1 out of Example 4-1 capsules (silica shell), LFE Composition 1, 0.25 wt % perfume
[11] = PRM of Perfume 1 out of Example 6-1 capsules (w/ second shell component), LFE Composition 1
[12] = PRM of Perfume 1 out of Example 10-1 capsules (Sample F, Perfume 1/IPM 40/60), LFE Composition 1
[13] = PRM of Perfume 1 out of Example 10-2 capsules (Sample A), LFE Composition 1
[14] = PRM of Perfume 3 out of Capsule Sample D, LFE Composition 1
[15] = PRM of Perfume 1 out of Comparative Example 5-1 capsules (polyacrylate shell)
[16] = PRM of Perfume 1 out of Comparative example 5-2 capsules (per EP2500087B1)
[17] = PRM of Perfume 1 out of Comparative example 5-3 capsules (per WO2010013250A2)
[18] = PRM of Perfume 1 out of Example 5-1 capsules (silica shell)
[19] = PRM of Perfume 2 out of Capsule Sample C, LFE Composition 1
[20] = PRM of Perfume 4 out of Comparative Example 9-1 capsules (per EP3078415A), LFE Composition 1
[21] = PRM of Perfume 4 out of Comparative Example 9-2 capsules (per EP3078415A, additional TEOS), LFE Composition 1
[22] = PRM of Perfume 4 out of Example 9-1 capsules (Sample E), LFE Composition 1

CC(=O)O[C@@H]1C[C@H]2CC[C@]1(C)C2(C)C (racemic) [iso-Bornyl acetate]
Leakage (as %) after 1 week at 35° C. [1, 3]: 4%
Leakage (as %) after 1 week at 35° C. [1, 4]: 5%
Leakage (as %) after 1 week at 35° C. [1, 5]: 89%
Leakage (as %) after 1 week at 35° C. [1, 6]: 92%
Leakage (as %) after 1 week at 35° C. [1, 7]: 1.6%
Leakage (as %) after 1 week at 35° C. [1, 8]: 0.8%
Leakage (as %) after 1 week at 35° C. [1, 9]: 1.0%
Leakage (as %) after 1 week at 35° C. [1, 10]: 8%
Leakage (as %) after 1 week at 35° C. [1, 11]: 9%
Leakage (as %) after 1 week at 35° C. [1, 12]: 19%
Leakage (as %) after 1 week at 35° C. [1, 13]: 9%
Leakage (as %) after 1 week at 35° C. [1, 14]: 8%
Leakage (as %) after 1 week at 35° C. [2, 15]: 1%
Leakage (as %) after 1 week at 35° C. [2, 16]: 105%
Leakage (as %) after 1 week at 35° C. [2, 17]: 102%
Leakage (as %) after 1 week at 35° C. [2, 18]: 31%

c1ccc(Oc2ccccc2)cc1 [Diphenyl oxide]
Leakage (as %) after 1 week at 35° C. [1, 19]: 4%

CCOC(=O)C(C)CC (stereo not drawn) [Ethyl 2-methyl butyrate]
Leakage (as %) after 1 week at 35° C. [1, 3]: 61%
Leakage (as %) after 1 week at 35° C. [1, 4]: 101%
Leakage (as %) after 1 week at 35° C. [1, 5]: 100%
Leakage (as %) after 1 week at 35° C. [1, 6]: 100%
Leakage (as %) after 1 week at 35° C. [1, 7]: 1.3%
Leakage (as %) after 1 week at 35° C. [1, 8]: 1.0%
Leakage (as %) after 1 week at 35° C. [1, 9]: 2.2%
Leakage (as %) after 1 week at 35° C. [1, 10]: 4%
Leakage (as %) after 1 week at 35° C. [1, 11]: 6%
Leakage (as %) after 1 week at 35° C. [1, 12]: 28%
Leakage (as %) after 1 week at 35° C. [1, 13]: 6%
Leakage (as %) after 1 week at 35° C. [1, 19]: 21%
Leakage (as %) after 1 week at 35° C. [1, 14]: 14%
Leakage (as %) after 1 week at 35° C. [2, 15]: 75%
Leakage (as %) after 1 week at 35° C. [2, 16]: 103%
Leakage (as %) after 1 week at 35° C. [2, 17]: 99%
Leakage (as %) after 1 week at 35° C. [2, 18]: 38%

COC(=O)OC1CC/C=C\CCC1 (stereo not drawn) [[(4Z)-1-cyclooct-4-enyl] methyl carbonate]
Leakage (as %) after 1 week at 35° C. [1, 19]: 5%

CC(C=O)Cc1ccc(C(C)(C)C)cc1 (stereo not drawn) [Lilial]
Leakage (as %) after 1 week at 35° C. [1, 20]: 46%
Leakage (as %) after 1 week at 35° C. [1, 21]: 61%
Leakage (as %) after 1 week at 35° C. [1, 22]: 30%

CCOC(=O)C1CCC(C(=O)OCC)CC1 (stereo not drawn) [diethyl 1,4-cyclohexane dicarboxylate]
Leakage (as %) after 1 week at 35° C. [1, 19]: 3%

CCC=C(C)C(O)CCCCC (stereo not drawn) [Undecavertol]
Leakage (as %) after 1 week at 35° C. [1, 14]: 11%

CC(C)=CC1CC(C)CCO1 (stereo not drawn) [Rose Oxide]
Leakage (as %) after 1 week at 35° C. [1, 14]: 8%

C=CCOC(=O)CCCCC [Allyl caproate]
Leakage (as %) after 1 week at 35° C. [1, 14]: 9%

CC1=CC(C)C(C=O)CC1 (stereo not drawn) [Ligustral-1]
Leakage (as %) after 1 week at 35° C. [1, 14]: 8%

CC(=O)/C=C/C1=C(C)CCCC1(C)C [beta ionone]
Leakage (as %) after 1 week at 35° C. [1, 14]: 5%

CC(=O)OC(C)c1ccccc1 (stereo not drawn) [Methyl phenyl carbinyl acetate]
Leakage (as %) after 1 week at 35° C. [1, 14]: 7%

CCCCCCOC(=O)c1ccccc1O [Hexyl Salicylate]
Leakage (as %) after 1 week at 35° C. [1, 20]: 34%
Leakage (as %) after 1 week at 35° C. [1, 21]: 28%
Leakage (as %) after 1 week at 35° C. [1, 22]: 3%

CCCCCC/C(C=O)=C\c1ccccc1 [Hexylcinnamyl aldehyde]
Leakage (as %) after 1 week at 35° C. [1, 20]: 22%
Leakage (as %) after 1 week at 35° C. [1, 21]: 36%
Leakage (as %) after 1 week at 35° C. [1, 22]: 7%

C=CCCC(=O)C1=CCCC(C)(C)C1 [1-(5,5-dimethyl-1-cyclohexenyl)pent-4-en-1-one]
Leakage (as %) after 1 week at 35° C. [1, 19]: 2%
Leakage (as %) after 1 week at 35° C. [1, 14]: 2%

CCCCCCCCCC(C)C=O (stereo not drawn) [Methyl nonyl acetaldehyde]
Leakage (as %) after 1 week at 35° C. [1, 14]: 4%

CC(=O)C(C)=CC1C(C)=CCCC1(C)C (stereo not drawn) [3-Methyl-4-(2,6,6-trimethyl-2cyclohexen-1-yl)-3-buten-2-one]
Leakage (as %) after 1 week at 35° C. [1, 14]: 6%

CC=CC(=O)C1C(C)C=CCC1(C)C (stereo not drawn) [1-(2,6,6-trimethyl-1-cyclohex-3-enyl)but-2-en-1-one]
Leakage (as %) after 1 week at 35° C. [1, 19]: 4%
Leakage (as %) after 1 week at 35° C. [1, 14]: 5%

CCC(=O)OC1C=CC2C3CCC(C3)C12 (stereo not drawn) [3a,4,5,6,7,7a-hexahydro-1H-4,7-methanoinden-1-yl propanoate]
Leakage (as %) after 1 week at 35° C. [1, 19]: 4%

CC(C)=CCCC(C)CCO (stereo not drawn) [Citronellol]
Leakage (as %) after 1 week at 35° C. [1, 14]: 4%

CC(=O)/C=C/C1C(C)=CCCC1(C)C (stereo not drawn) [Alpha-ionone]
Leakage (as %) after 1 week at 35° C. [1, 20]: 58%
Leakage (as %) after 1 week at 35° C. [1, 21]: 69%
Leakage (as %) after 1 week at 35° C. [1, 22]: 15%

CC1=CCC(C(C)(C)O)CC1 (stereo not drawn) [alpha-Terpineol]
Leakage (as %) after 1 week at 35° C. [1, 14]: 10%
